Assay results: US8697727B2, “N-substituted-heterocycloalkyloxybenzamide compounds and methods of use” (Rigel Pharmaceuticals, Inc., priority 2006, dated 2014)

Columns and labels:
Type in all cases: cell-based
[1] = tested on: AMPK; assay: Western blot assay for AMPK activity; conditions: gel electrophoresis data relative to GST-gAd (FIG. 3)
Method: Western blot assays for AMPK activity were performed on compounds 1, 2, 94 and 95. FIG. 3 presents gel electrophoresis data for compounds 1, 2, 94 and 95 relative to GST-gAd.

[2] = tested on: AMPK; assay: AMPK activation, enzyme-linked immunosorbent assay
Procedure, shortened: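 AMPK activity in cells was measured by enzyme-linked immunosorbent assay as the relative concentration of phosphorylated acetyl-CoA carboxylase, which AMPK produces. From this, an EC50 for AMPK activation was determined for each compound. Ranges used: less than 1 μM, 1-10 μM, 10-20 μM, 20-50 μM, 50-100 μM, and >100 μM.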

[3] = tested on: Human liver cells (HepG2); assay: Reduction of glycogen content in liver cells (Amplex Red); conditions: HepG2 cells treated for 16 hours, Amplex Red (FIG. 4)
Method: The ability of compounds of the present invention to reduce the glycogen content in liver cells was determined using a functional assay. Human liver cells (HepG2) were seeded in a 96 well plate and on the next day were treated with compounds 1, 2, 94 and 95 for 16 hours. The glycogen content of the cells was determined using Amplex Red.

| SMILES | AMPK activity in the western blot assay [1] | EC50 [2] [nM] | IC50 value, glycogen content [3] |
| --- | --- | --- | --- |
| COc1ccc(CN2CCC(Oc3ccc(C(=O)NC4CCN(Cc5ccccc5)CC4)cc3Cl)CC2)cc1 [Compound 1, N-(1-benzylpiperidin-4-yl)-3-chloro-4-(1-(4-methoxybenzyl)piperidin-4-yloxy)benzamide] | strong activity | < 1000 | sub-micromolar |
| COc1cc(C(=O)NCCCNC(=O)OC(C)(C)C)ccc1OC1CCN(Cc2ccc(C(F)(F)F)cc2)CC1 [Compound 94, tert-butyl 3-(3-methoxy-4-(1-(4-(trifluoromethyl)benzyl)piperidin-4-yloxy)benzamido)propylcarbamate] | strong activity | < 1000 | sub-micromolar |
| CC(C)(C)OC(=O)NCCCNC(=O)c1ccc(OC2CCN(Cc3ccc(C(F)(F)F)cc3)CC2)cc1 [Compound 95, tert-butyl 3-(4-(1-(4-(trifluoromethyl)benzyl)piperidin-4-yloxy)benzamido)propylcarbamate] | strong activity | < 1000 | sub-micromolar |
| CN1CCC(NC(=O)c2ccc(OC3CCN(Cc4ccc(C(F)(F)F)cc4)CC3)c(Cl)c2)CC1 [Compound 58, 3-chloro-N-(1-methylpiperidin-4-yl)-4-(1-(4-(trifluoromethyl)benzyl)piperidin-4-yloxy)benzamide] |  | 1000 to 10000 |  |
| O=C(NC1CCN(Cc2ccccc2)CC1)c1cccc(OC2CCN(c3ccccn3)CC2)c1 [Compound 86, N-(1-benzylpiperidin-4-yl)-3-(1-(pyridin-2-yl)piperidin-4-yloxy)benzamide] |  | < 1000 |  |
| COc1cc(C(=O)NC2CCN(Cc3ccccc3)CC2)ccc1OC1CCN(Cc2ccccc2)CC1 [Compound 2, N-(1-benzylpiperidin-4-yl)-4-(1-benzylpiperidin-4-yloxy)-3-methoxybenzamide] | strong activity | < 1000 | sub-micromolar |
| O=C(c1ccc(OC2CCN(Cc3ccccc3)CC2)cc1)N1CCN(c2ccccc2)CC1 [Compound 103, (4-(1-benzylpiperidin-4-yloxy)phenyl)(4-phenylpiperazin-1-yl)methanone] |  | 20000 to 50000 |  |
